Test results: patent US5444052A, “Amphotericin B composition with enhanced fungal activity” (Temple University of the Commonwealth System of Higher …, priority 1993, dated 1995)
Like-named read-outs stand apart in the source and are kept apart here.

What was measured:
[1] = test system: C. neoformans; assay: Checkerboard minimum inhibitory concentration and synergy test (microtiter plate and agar plate analysis) on C. neoformans; format: cell-based, Cryptococcus neoformans; details: for synergistic effect of DDG isomers on antifungal effect of amphotericin B / MIC: 24 h; for synergistic effect of DDG isomers on antifungal effect of amphotericin B: 37° C. (FIG. 11); for Fold MIC decrease: added compound with other compound at 1/2 MIC vs alone; for 1/2 MIC: half of MIC, concentration used in the combination; for MIC: Cryptococcus neoformans
[2] = test system: neurons; details: cited from earlier work
[3] = test system: mice; details: cited from earlier work
[4] = test system: laboratory animals; details: fed in very high doses; cited from earlier work
[5] = test system: phagocytes; details: cited from earlier work
[6] = cited from earlier work
[7] = test system: C. albicans; assay: Checkerboard minimum inhibitory concentration and synergy test (microtiter plate and agar plate analysis) on Candida albicans; format: cell-based; details: for Fold MIC decrease: added compound with other compound at 1/2 MIC vs alone; for 1/2 MIC: half of MIC, concentration used in the combination; for MIC: Candida albicans, 24 h
[8] = test system: erythrocytes; details: by binding to cholesterol in the cell membrane, causing anemia; cited from earlier work
[9] = test system: bacteria, rickettsiae, and viruses; details: cited from earlier work
[10] = intravenous, 1 mg/kg, cited from earlier work
[11] = test system: human cells; details: cited from earlier work
[12] = 25° C., agar plate, compound alone, read-out: MIC
[13] = 25° C., microtiter plate, compound alone, read-out: MIC
[14] = 37° C., agar plate, compound alone, read-out: MIC
[15] = 37° C., microtiter plate, compound alone, read-out: MIC
[16] = 25° C., agar plate, compound alone
[17] = 25° C., microtiter plate, compound alone
[18] = 37° C., agar plate, compound alone
[19] = 37° C., microtiter plate, compound alone

SMILES: CCCCCCCCCCCCOC[C@H](O)CO [Sn-3-DDG, sn-3-O-dodecylglycerol]
- synergistic effect of DDG isomers on antifungal effect of amphotericin B [1]: synergistic effect

SMILES: CCCCCCCCCCCCOC[C@@H](O)CO [sn-1-DDG, sn-1-O-dodecylglycerol]
- synergistic effect of DDG isomers on antifungal effect of amphotericin B [1]: synergistic effect

SMILES: CCCCCCCCCCCCOC(CO)CO [2-DDG, 2-O-dodecylglycerol]
- synergistic effect of DDG isomers on antifungal effect of amphotericin B [1]: synergistic effect

SMILES: CCCCCCCCCCCCOCC(O)CO (racemic) [rac-1-DDG, rac-1-O-dodecylglycerol]
- Fold MIC decrease ([1]; 25° C., agar plate): 80
- 1/2 MIC ([1]; 25° C., agar plate): 5 µg/mL
- Fold MIC decrease ([1]; 25° C., microtiter plate): 120
- 1/2 MIC ([1]; 25° C., microtiter plate): 7.5 µg/mL
- Fold MIC decrease ([1]; 37° C., agar plate): 160
- 1/2 MIC ([1]; 37° C., agar plate): 10 µg/mL
- Fold MIC decrease ([1]; 37° C., microtiter plate): 50
- 1/2 MIC ([1]; 37° C., microtiter plate): 7.5 µg/mL
- MIC [1, 12]: 10 µg/mL
- MIC [1, 13]: 15 µg/mL
- MIC ([1]; 25° C., microtiter plate, in presence of the other compound at 1/2 MIC (rac-1-DDG 7.5 or Amph. B 1.13 μg/ml), read-out: Resulting MIC of added compound): 0.125 µg/mL
- MIC ([1]; 25° C., agar plate, in presence of the other compound at 1/2 MIC (rac-1-DDG 5 or Amph. B 1.13 μg/ml), read-out: Resulting MIC of added compound): 0.125 µg/mL
- MIC [1, 14]: 20 µg/mL
- MIC [1, 15]: 15 µg/mL
- MIC ([1]; 37° C., agar plate, in presence of the other compound at 1/2 MIC (rac-1-DDG 10 or Amph. B 1.25 μg/ml), read-out: Resulting MIC of added compound): 0.125 µg/mL
- MIC ([1]; 37° C., microtiter plate, in presence of the other compound at 1/2 MIC (rac-1-DDG 7.5 or Amph. B 0.75 μg/ml), read-out: Resulting MIC of added compound): 0.3 µg/mL
- neuronal growth [2]: promote neuronal growth
- organ weights or body weights ([3]; 1 g/kg/day in feed, 4 weeks): did not significantly alter the organ weights or body weights of mice
- linoleolyl moieties of total lipids ([3]; during feeding, 1 g/kg/day): concomitant decrease
- saturated acyl moieties of total lipids ([3]; during feeding, 1 g/kg/day): marked increase
- lipids of organs and tissues ([3]; four weeks after removal of compound from diet): close resemblance to those of a control group
- toxicity [4]: does not appear to be toxic
- stimulation of phagocytes to ingest foreign substances [5]: stimulated
- solubility in water [6]: relatively good solubility in water
- Fold MIC decrease ([7]; 25° C., agar plate): 80
- 1/2 MIC ([7]; 25° C., agar plate): 10 µg/mL
- Fold MIC decrease ([7]; 25° C., microtiter plate): 36
- 1/2 MIC ([7]; 25° C., microtiter plate): 5 µg/mL
- Fold MIC decrease ([7]; 37° C., agar plate): 40
- 1/2 MIC ([7]; 37° C., agar plate): 7.5 µg/mL
- Fold MIC decrease ([7]; 37° C., microtiter plate): 40
- 1/2 MIC ([7]; 37° C., microtiter plate): 7.5 µg/mL
- MIC [7, 12]: 20 µg/mL
- MIC [7, 13]: 10 µg/mL
- MIC ([7]; 25° C., agar plate, in presence of the other compound at 1/2 MIC (rac-1-DDG 10 or Amph. B 1.13 μg/ml), read-out: Resulting MIC of added compound): 0.25 µg/mL
- MIC ([7]; 25° C., microtiter plate, in presence of the other compound at 1/2 MIC (rac-1-DDG 5 or Amph. B 1 μg/ml), read-out: Resulting MIC of added compound): 0.281 µg/mL
- MIC [7, 14]: 15 µg/mL
- MIC [7, 15]: 15 µg/mL
- MIC ([7]; 37° C., agar plate, in presence of the other compound at 1/2 MIC (rac-1-DDG 7.5 or Amph. B 1 μg/ml), read-out: Resulting MIC of added compound): 0.375 µg/mL
- MIC ([7]; 37° C., microtiter plate, in presence of the other compound at 1/2 MIC (rac-1-DDG 7.5 or Amph. B 0.5 μg/ml), read-out: Resulting MIC of added compound): 0.375 µg/mL

SMILES: C[C@@H]1[C@H](O)[C@@H](C)/C=C/C=C/C=C/C=C/C=C/C=C/C=C/[C@H](O[C@@H]2O[C@H](C)[C@@H](O)[C@H](N)[C@@H]2O)C[C@@H]2O[C@](O)(C[C@@H](O)C[C@@H](O)[C@H](O)CC[C@@H](O)C[C@@H](O)CC(=O)O[C@H]1C)C[C@H](O)[C@H]2C(=O)O [amphotericin B, [1R-(1R*,3S*, 5R*,6R*,9R*, 11R*,15S*,16R*,17R*,18S*,19E,21E,23E,25E,27E,29E,31E,33R*, 35S*,36R*,37S,)]-33-[(3-amino-3,6-dideoxy-β-D-mannopyranosyl)oxy]1,3,5,6,9,11,17,37-octahydroxy-15,16,18-trimethyl-13-oxo-14,39-dioxabicyclo-[33.3.1]nonatriaconta-19,21,23,25,27,29,31-heptaene-36-carboxylic acid]
- Fold MIC decrease ([1]; 25° C., agar plate): 72
- 1/2 MIC ([1]; 25° C., agar plate): 1.13 µg/mL
- Fold MIC decrease ([1]; 25° C., microtiter plate): 48
- 1/2 MIC ([1]; 25° C., microtiter plate): 1.12 µg/mL
- 1/2 MIC ([1]; 25° C., microtiter plate, listed as Amph. B): 1.13 µg/mL
- Fold MIC decrease ([1]; 37° C., agar plate): 80
- 1/2 MIC ([1]; 37° C., agar plate): 1.25 µg/mL
- Fold MIC decrease ([1]; 37° C., microtiter plate): 12.7
- 1/2 MIC ([1]; 37° C., microtiter plate): 0.75 µg/mL
- MIC [1, 16]: 2.25 µg/mL
- MIC [1, 17]: 2.25 µg/mL
- MIC [1, 18]: 2.5 µg/mL
- MIC [1, 19]: 1.5 µg/mL
- MIC ([1]; read-out: Resulting MIC of added compound, 25° C., 24 h, microtiter plate, in presence of the other compound at 1/2 MIC (rac-1-DDG 7.5 or Amph. B 1.13 μg/ml)): 0.047 µg/mL
- MIC ([1]; read-out: Resulting MIC of added compound, 25° C., agar plate, in presence of the other compound at 1/2 MIC (rac-1-DDG 5 or Amph. B 1.13 μg/ml)): 0.0313 µg/mL
- MIC ([1]; read-out: Resulting MIC of added compound, 37° C., agar plate, in presence of the other compound at 1/2 MIC (rac-1-DDG 10 or Amph. B 1.25 μg/ml)): 0.0313 µg/mL
- MIC ([1]; read-out: Resulting MIC of added compound, 37° C., microtiter plate, in presence of the other compound at 1/2 MIC (rac-1-DDG 7.5 or Amph. B 0.75 μg/ml)): 0.118 µg/mL
- damage to erythrocytes [8]: damages erythrocytes
- effect on bacteria, rickettsiae, and viruses [9]: no effect
- peak serum concentrations ([10]; by end of infusion): 2-3 micrograms/ml
- serum concentration ([10]; for up to 24 hours after infusion): above 0.5 micrograms/ml
- solubility in water ([6]; crystalline): insoluble in water
- Fold MIC decrease ([7]; 25° C., agar plate): 72
- 1/2 MIC ([7]; 25° C., agar plate): 1.13 µg/mL
- Fold MIC decrease ([7]; 25° C., microtiter plate): 64
- 1/2 MIC ([7]; 25° C., microtiter plate): 1 µg/mL
- Fold MIC decrease ([7]; 37° C., agar plate): 10.6
- 1/2 MIC ([7]; 37° C., agar plate): 1 µg/mL
- Fold MIC decrease ([7]; 37° C., microtiter plate): 5.3
- 1/2 MIC ([7]; 37° C., microtiter plate): 0.5 µg/mL
- MIC [7, 16]: 2.25 µg/mL
- MIC [7, 17]: 2 µg/mL
- MIC [7, 18]: 2 µg/mL
- MIC [7, 19]: 1 µg/mL
- MIC ([7]; read-out: Resulting MIC of added compound, 25° C., agar plate, in presence of the other compound at 1/2 MIC (rac-1-DDG 10 or Amph. B 1.13 μg/ml)): 0.0313 µg/mL
- MIC ([7]; read-out: Resulting MIC of added compound, 25° C., microtiter plate, in presence of the other compound at 1/2 MIC (rac-1-DDG 5 or Amph. B 1 μg/ml)): 0.0313 µg/mL
- MIC ([7]; read-out: Resulting MIC of added compound, 37° C., agar plate, in presence of the other compound at 1/2 MIC (rac-1-DDG 7.5 or Amph. B 1 μg/ml)): 0.188 µg/mL
- MIC ([7]; read-out: Resulting MIC of added compound, 37° C., microtiter plate, in presence of the other compound at 1/2 MIC (rac-1-DDG 7.5 or Amph. B 0.5 μg/ml)): 0.188 µg/mL

SMILES: Nc1nc(=O)[nH]cc1F [Fluorocytosine]
- toxicity to human cells [11]: toxic to human cells
